Patent US9056922B2, “Chimeric relaxin polypeptides comprising an A and B chain derived from different relaxin family peptides” (HOWARD FLOREY INSTITUTE OF EX[…] MEDICINE, priority 2007, dated 2015)

Key:
LGR8 (RXFP2) receptor = LGR8 (RXFP2) receptor (Homo sapiens, UniProt Q8WXD0); assay: cell-based
Text: Data are presented as the mean±S.E.M. of at least 1 experiment (number performed shown in parentheses in Table 1) performed in triplicate.

LGR7 receptor = target: T1, LGR7 receptor (Homo sapiens, UniProt Q9HBX9); assay: Whole cell [125I]-labelled H2 relaxin competition binding assay
T1 construct: expressed in transfected cells; host or cells: HEK293T
T1 sequence (Q9HBX9 1-757): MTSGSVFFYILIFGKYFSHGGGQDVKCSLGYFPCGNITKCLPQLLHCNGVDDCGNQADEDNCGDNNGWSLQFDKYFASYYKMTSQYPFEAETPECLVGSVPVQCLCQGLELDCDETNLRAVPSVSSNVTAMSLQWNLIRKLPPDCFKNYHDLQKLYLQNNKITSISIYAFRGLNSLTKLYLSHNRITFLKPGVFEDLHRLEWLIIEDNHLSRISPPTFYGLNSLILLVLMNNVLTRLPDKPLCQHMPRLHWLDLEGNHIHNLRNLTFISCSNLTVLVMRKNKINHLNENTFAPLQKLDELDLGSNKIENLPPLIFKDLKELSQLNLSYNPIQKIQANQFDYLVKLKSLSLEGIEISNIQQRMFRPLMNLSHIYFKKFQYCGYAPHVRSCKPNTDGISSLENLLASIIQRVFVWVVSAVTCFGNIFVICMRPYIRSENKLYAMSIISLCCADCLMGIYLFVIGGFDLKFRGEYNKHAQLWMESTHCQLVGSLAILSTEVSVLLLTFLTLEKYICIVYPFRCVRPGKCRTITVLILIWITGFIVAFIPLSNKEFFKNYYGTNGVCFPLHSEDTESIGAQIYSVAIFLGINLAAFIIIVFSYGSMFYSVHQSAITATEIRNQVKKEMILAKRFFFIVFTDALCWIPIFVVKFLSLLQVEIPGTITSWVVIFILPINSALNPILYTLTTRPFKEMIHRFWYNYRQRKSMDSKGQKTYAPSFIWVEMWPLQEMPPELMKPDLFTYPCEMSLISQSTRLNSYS
Experimental: Briefly, HEK293T cells were plated out into 24-well plates (450,000 cells per well) or 48-well plates (225,000 cells per well), and transfected with pcDNA3.1/zeo plasmid containing the receptor of interest the following day as described above in Example 2. […] Non-specific binding was determined by addition of excess unlabelled relaxin (500 nM). Data were analysed using GraphPad Prism.

LGR7 (RXFP1) receptor = target: T2, LGR7 (RXFP1) receptor (Homo sapiens, UniProt Q9HBX9); assay: cAMP reporter gene assay (pCRE-β-galactosidase) in LGR7-expressing cells; format: cell-based
T2 construct: expressed in transfected cells; host or cells: HEK-293T
T2 sequence (Q9HBX9 1-757): T1 sequence (Q9HBX9 1-757)
Experimental: In the present study the inventors investigated the ability of chimeric polypeptides generated herein (see Example 1) to stimulate cAMP production in cells expressing either the LGR7 or LGR8 receptor.
Receptor cAMP signaling was assessed using a cAMP reporter gene assay. […] Transfected cells were incubated with increasing concentrations of peptides for 6 hrs after which the media was aspirated and the cells frozen at −80° C. overnight. The amount of cAMP-driven β-galactosidase expression in each well was determined by incubating the cells in 25 μl of lysis buffer (10 mM Na2HPO4, pH 8.0, 0.2 mM MgSO4, 0.01 mM MnCl2) for 10 minutes, 100 μl of assay buffer (100 mM Na2HPO4, pH 8.0, 2 mM MgSO4, 0.1 mM MnCl2, 0.5% Triton X-100, 40 mM B-mercaptoethanol) for a further 10 minutes before 25 μL of enzyme substrate solution (1 mg/ml chlorophenol red B-D galactopyranoside (Roche) in 100 mM Na2HPO4, pH 8.0, 2 mM MgSO4, 0.1 mM MnCl2) was added to each well and the plate incubated for 3 h or overnight. The absorbance of each well was determined at 570 nm using a Ceres UV900C plate reader (Bio-Tek Instruments, Vermont, USA).
All experiments were repeated at least three times with triplicate determinations within each assay.
Data are presented as the mean±S.E.M. of […] (number performed shown in parentheses in Table 1) performed in triplicate.

Sequence of LGR8 (RXFP2) receptor (Q8WXD0 whole entry): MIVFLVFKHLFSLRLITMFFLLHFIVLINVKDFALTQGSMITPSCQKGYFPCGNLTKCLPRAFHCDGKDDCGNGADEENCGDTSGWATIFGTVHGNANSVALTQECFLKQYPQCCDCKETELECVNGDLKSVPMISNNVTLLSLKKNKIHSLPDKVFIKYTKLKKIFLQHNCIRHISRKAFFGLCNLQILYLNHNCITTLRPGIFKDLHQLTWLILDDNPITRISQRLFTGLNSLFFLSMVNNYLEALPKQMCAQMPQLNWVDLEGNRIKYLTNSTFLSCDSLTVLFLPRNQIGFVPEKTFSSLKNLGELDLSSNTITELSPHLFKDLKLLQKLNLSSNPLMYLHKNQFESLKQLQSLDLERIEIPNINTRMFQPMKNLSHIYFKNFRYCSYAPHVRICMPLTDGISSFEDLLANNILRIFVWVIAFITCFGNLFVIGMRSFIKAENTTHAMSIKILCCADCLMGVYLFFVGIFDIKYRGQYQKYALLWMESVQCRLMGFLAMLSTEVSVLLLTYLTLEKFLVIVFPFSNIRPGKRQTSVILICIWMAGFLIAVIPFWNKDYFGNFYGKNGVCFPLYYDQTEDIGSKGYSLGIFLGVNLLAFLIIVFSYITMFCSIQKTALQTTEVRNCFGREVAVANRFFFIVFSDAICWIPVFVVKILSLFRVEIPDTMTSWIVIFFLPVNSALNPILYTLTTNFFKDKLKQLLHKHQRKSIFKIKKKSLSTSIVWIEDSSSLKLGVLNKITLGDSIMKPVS

SMILES	EC50 (LGR8 (RXFP2) receptor) [nM]	Ki (LGR7 receptor) [nM]	EC50 (LGR7 (RXFP1) receptor) [nM]
CC[C@H](C)[C@@H]1NC(=O)[C@H](C)NC(=O)[C@H]([C@@H](C)CC)NC(=O)[C@H](CCC(N)=O)NC(=O)[C@H](C)NC(=O)[C@H](CCCNC(=N)N)NC(=O)[C@H](C(C)C)NC(=O)[C@H](CC(C)C)NC(=O)[C@H](CCC(=O)O)NC(=O)[C@H](CCCNC(=N)N)NC(=O)CNC(=O)[C@@H](NC(=O)[C@H](CC(C)C)NC(=O)[C@H](CCCCN)NC(=O)[C@@H](NC(=O)[C@@H](NC(=O)[C@H](CCC(=O)O)NC(=O)[C@H](CCC(=O)O)NC(=O)[C@H](CCSC)NC(=O)[C@H](Cc2c[nH]c3ccccc23)NC(=O)[C@H](CO)NC(=O)[C@@H](N)CC(=O)O)C(C)C)[C@@H](C)CC)CSSC[C@@H]2NC(=O)[C@@H](NC(=O)[C@H](CO)NC(=O)[C@H](CO)NC(=O)[C@H](CO)NC(=O)[C@H](CC(C)C)NC(=O)CNC(=O)[C@H](C)NC(=O)[C@H](CC(C)C)NC(=O)[C@@H](NC(=O)[C@@H](N)CC(=O)O)C(C)C)CSSC[C@H](NC(=O)CNC(=O)[C@H](Cc3c[nH]c4ccccc34)NC(=O)[C@H](CCCCN)NC2=O)C(=O)N[C@@H](CO)C(=O)N[C@@H](CCCCN)C(=O)N[C@@H](CO)C(=O)N[C@@H](CCC(=O)O)C(=O)N[C@@H]([C@@H](C)CC)C(=O)N[C@@H](CO)C(=O)N[C@@H](CO)C(=O)N[C@@H](CC(C)C)C(=O)N[C@H](C(=O)O)CSSC[C@@H](C(=O)NCC(=O)N[C@@H](CCSC)C(=O)N[C@@H](CO)C(=O)N[C@H](C(=O)N[C@@H](Cc2c[nH]c3ccccc23)C(=O)N[C@@H](CO)C(=O)O)[C@@H](C)O)NC1=O [H2-B/H3-A]	4570	158	7.94
CC[C@H](C)[C@@H]1NC(=O)[C@H](C)NC(=O)[C@H]([C@@H](C)CC)NC(=O)[C@H](CCC(N)=O)NC(=O)[C@H](C)NC(=O)[C@H](CCCNC(=N)N)NC(=O)[C@H](C(C)C)NC(=O)[C@H](CC(C)C)NC(=O)[C@H](CCC(=O)O)NC(=O)[C@H](CCCNC(=N)N)NC(=O)CNC(=O)[C@@H](NC(=O)[C@H](CC(C)C)NC(=O)[C@H](CCCCN)NC(=O)[C@@H](NC(=O)[C@@H](NC(=O)[C@H](CCC(=O)O)NC(=O)[C@H](CCC(=O)O)NC(=O)[C@H](CCSC)NC(=O)[C@H](Cc2c[nH]c3ccccc23)NC(=O)[C@H](CO)NC(=O)[C@@H](N)CC(=O)O)C(C)C)[C@@H](C)CC)CSSC[C@@H]2NC(=O)[C@@H](NC(=O)[C@H](Cc3ccc(O)cc3)NC(=O)[C@H](CCCNC(=N)N)NC(=O)[C@H](C)NC(=O)[C@@H]3CCCN3C(=O)[C@H](CC(N)=O)NC(=O)[C@@H](NC(=O)[C@H](C)NC(=O)[C@H](C)NC(=O)[C@H](C)N)[C@@H](C)O)CSSC[C@H](NC(=O)CNC(=O)[C@H](CO)NC(=O)[C@H](CC(C)C)NC2=O)C(=O)N[C@@H]([C@@H](C)O)C(=O)N[C@@H](CCC(N)=O)C(=O)N[C@@H](CCC(N)=O)C(=O)N[C@@H](CC(=O)O)C(=O)N[C@@H](CC(C)C)C(=O)N[C@@H](CC(C)C)C(=O)N[C@@H]([C@@H](C)O)C(=O)N[C@@H](CC(C)C)C(=O)N[C@H](C(=O)N2CCC[C@H]2C(=O)N[C@@H](Cc2ccc(O)cc2)C(=O)O)CSSC[C@@H](C(=O)NCC(=O)N[C@@H](CCSC)C(=O)N[C@@H](CO)C(=O)N[C@H](C(=O)N[C@@H](Cc2c[nH]c3ccccc23)C(=O)N[C@@H](CO)C(=O)O)[C@@H](C)O)NC1=O [H2-B/INSL3-A]	< 1000	617	> 1000
